Assay [1] deals with T1, MMP-3 (Homo sapiens, UniProt P08254).
T1 construct: Truncated Prostromelysin-257 was expressed in a soluble form in E.coli; made in house; host or cells: E. coli
Briefly: Automated MMP Profiling Assay, MMP-3 fluorogenic. It counts as biochemical. The conditions noted are these: 96-well automated, P218. The source says: This assay with each invention compound was run with the three enzymes MMP-3, MMP-9 and MMP-2 in parallel as adapted for a 96-well microtitre plate using a Hamilton A® workstation.

Assay [2] has as its target T2, MMP-2 (Homo sapiens, UniProt P08253).
T2 sequence (P08253 110-660): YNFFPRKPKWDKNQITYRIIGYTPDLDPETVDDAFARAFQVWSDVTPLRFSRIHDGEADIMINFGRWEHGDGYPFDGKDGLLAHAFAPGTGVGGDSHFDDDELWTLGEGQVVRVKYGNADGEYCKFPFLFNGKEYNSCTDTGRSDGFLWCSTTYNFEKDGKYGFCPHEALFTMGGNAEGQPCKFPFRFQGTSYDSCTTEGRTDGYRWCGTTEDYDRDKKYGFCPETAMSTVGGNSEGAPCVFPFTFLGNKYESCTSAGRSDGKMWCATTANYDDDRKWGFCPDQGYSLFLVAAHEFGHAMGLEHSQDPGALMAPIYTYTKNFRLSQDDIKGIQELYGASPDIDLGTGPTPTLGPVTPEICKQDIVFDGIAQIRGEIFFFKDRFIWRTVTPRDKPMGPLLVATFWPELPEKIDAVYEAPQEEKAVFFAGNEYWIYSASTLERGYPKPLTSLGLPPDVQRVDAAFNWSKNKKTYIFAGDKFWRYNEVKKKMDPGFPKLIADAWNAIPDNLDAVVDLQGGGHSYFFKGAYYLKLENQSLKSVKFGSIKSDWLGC
Briefly: Automated MMP Profiling Assay, MMP-2 fluorogenic. It counts as biochemical. The settings on record: 96-well automated, P218; read-out: MMP-2 Fluorogenic IC50 (profiling).

Assay [3] deals with Femoral Lesion. Briefly: Inhibition of Cartilage Lesions in a Guinea Pig Model of Osteoarthritis. It counts as in vivo. The conditions noted are these: 15 mg/kg oral gavage daily, 33 days, vs vehicle. On the procedure:
Pathol. 1987 24, 444-448. Seven of the invention compounds were dissolved at 15 mg/ml in a vehicle of 10 mg/ml Tween 80, 190 mg/ml PEG and 0.44 mg/ml ethanolamine. This concentrate was diluted 1:1 with water before dosing (final concentration 7.5 mg/ml). On the 5th day before surgery, each animal received either a test compound plus vehicle or vehicle only administered by oral gavage each day at 15 mg/kg (2 ml/kg) up to surgery and then for four weeks post surgery (total 33 days of dosing). At the beginning of dosing and twice weekly thereafter the animals were weighed and the dose of the respective compounds or vehicles were calculated and adjusted if necessary. At the conclusion of the study the animals were euthanized by CO2 asphyxiation and their stifles removed, partially dissected and placed in 10% neutral buffered formalin. The extent of lesion development on the femoral head was measured by computer assisted surface area analysis.

Assay [4] concerns the target T3, MMP-9 (Homo sapiens, UniProt P14780).
T3 construct: from tissue; host or cells: human polymorphonuclear leukocytes (PMN) from whole blood (New York Blood Center), PMA-stimulated supernatant
Briefly: Automated MMP Profiling Assay, MMP-9 fluorogenic. It counts as biochemical. The conditions noted are these: 96-well automated, P218.

Assay [5] has as its target T1, MMP-3. In words: Primary Thiopeptilide MMP-3 Inhibition Assay. The settings on record: for inhibition at 5 µM: read-out: MMP-3 Thiopep. % inhibition; for pIC50: pH 6.5, 13 nM stromelysin, x (n) = average of n determinations, read-out: MMP-3 Thiopep. IC50. The format is biochemical.
Method: Enzyme: recombinant stromelysin expressed in E.coli and purified as described above. […] The protocols for the assay of compounds as stromelysin inhibitors was the same as that used for MMP-9 except that the assay buffer was 50 mM MES, pH 6.5 containing 150 mM NaCl, 10 mM CaCl2, 0.005% Brij, and 1% DMSO.
Assay [6] concerns the target T3, MMP-9. In words: Thiopeptilide MMP-9 Inhibition Assay. The settings on record: for inhibition at 5 µM: read-out: MMP-9: Thiopep. % inhibition; for pIC50: pH 6.5, x (n) = average of n determinations, read-out: MMP-9: Thiopep. IC50. The format is biochemical.
For assay [7], the system named is MMP. Briefly: MMP inhibitory activity, comparison in words. The format is biochemical.
Assay [8] addresses T2, MMP-2. In words: Secondary P218 Quenched fluorescence Assay for MMP-2 Inhibition. It counts as biochemical. The conditions noted are these: for pIC50: 0.2 nM enzyme, x (n) = average of n determinations, read-out: MMP-2 Fluorogenic IC50.
In assay [9] the target is T1, MMP-3. In words: Secondary P218 Quenched fluorescence Assay for MMP-3 Inhibition. It counts as biochemical. The settings on record: for pIC50: P218 substrate, pH 6.5, 25° C., x (n) = average of n determinations, read-out: MMP-3 Fluorogenic IC50. The protocol:
Truncated Prostromelysin-257 was expressed in a soluble form in E.coli as described by Marcy et al., Biochemistry, 30, 6476-6483, 1991. Soluble truncated prostromelysin was purified by a modification of the monoclonal antibody affinity chromatography method described by Housley et al., J. Biol. Chem., 268, 4481-87, 1993.
The assay is run continuously in a 3.0 ml cuvette using a Perkin-Elmer LS 50 B Spectrofluorimeter at 25° C. in a final volume of 2.0 mls. P218 substrate (10 mM) in 100% DMSO is diluted to a final concentration of 2.0 micromolar (μM) into assay buffer: 50 mM MES, pH 6.5 containing 150 mM NaCl, 10 mM CaCl2, 0.005% Brij-35, and 1%(v/v) DMSO. Test compounds(10 mM) in DMSO are diluted in assay buffer at an initial concentration of 10 to 100 micromolar. […] The reaction is initiated by the addition of recombinant stromelysin (MMP-3) at a final concentration of 1.0 nM. Upon peptide cleavage, the fluorescent MCA group was detected using an excitation wavelength of 328 nanometers and an emission wavelength of 393 nanometers.

Here are results for 17 compounds from patent publication US5789434A, “Derivatives of substituted 4-biarylbutyric acid as matrix metalloprotease inhibitors” (priority 1995, dated 1998).

pIC50: −log10 of the molar value. Like-named read-outs stand apart in the source and are kept apart here. Non-standard residues stand in square brackets, D forms with d. Residues, ends and D or L forms follow the SMILES beside them. *: point of attachment. Dnp = O=[N+]([O-])c1ccc(*)c([N+](=O)[O-])c1; Mca = COc1ccc2c(CC(=O)*)cc(=O)oc2c1; Dap = NC[C@H](N)C(=O)O

T3 sequence (P14780 107-707 limits assumed): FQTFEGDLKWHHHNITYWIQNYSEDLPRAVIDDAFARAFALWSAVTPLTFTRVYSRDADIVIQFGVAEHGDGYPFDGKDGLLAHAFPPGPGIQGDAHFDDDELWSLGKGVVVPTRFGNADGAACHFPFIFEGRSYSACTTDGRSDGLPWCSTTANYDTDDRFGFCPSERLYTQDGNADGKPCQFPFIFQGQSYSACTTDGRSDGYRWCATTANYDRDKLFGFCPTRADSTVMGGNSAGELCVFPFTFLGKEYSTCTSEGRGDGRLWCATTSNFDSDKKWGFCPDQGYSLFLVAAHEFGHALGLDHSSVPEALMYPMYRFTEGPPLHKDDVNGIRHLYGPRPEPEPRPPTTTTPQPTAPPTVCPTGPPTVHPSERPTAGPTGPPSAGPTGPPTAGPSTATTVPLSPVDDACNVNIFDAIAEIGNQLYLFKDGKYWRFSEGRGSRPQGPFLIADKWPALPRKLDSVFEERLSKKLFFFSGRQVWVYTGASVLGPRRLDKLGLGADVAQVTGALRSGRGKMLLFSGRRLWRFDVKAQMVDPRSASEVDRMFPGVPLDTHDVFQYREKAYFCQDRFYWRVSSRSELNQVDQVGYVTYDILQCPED
T1 sequence (P08254 100-274 limits assumed): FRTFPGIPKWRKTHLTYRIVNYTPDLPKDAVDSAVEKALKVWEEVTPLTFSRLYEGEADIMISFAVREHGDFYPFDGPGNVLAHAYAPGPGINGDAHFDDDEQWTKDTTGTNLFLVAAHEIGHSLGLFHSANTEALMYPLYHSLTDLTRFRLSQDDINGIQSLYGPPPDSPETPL

Usually pIC50 stands for the IC50 on a negative log10 scale, so that one unit is a factor of ten. Regarding `O=C(C[C@H](CCCc1ccccc1)C(=O)O)c1ccc(-c2ccc(Cl)cc2)cc1` [Example 116, 4-[4-(4-chlorophenyl)phenyl]-4-oxo-2S-(3-phenylpropyl)butanoic acid], the pIC50 in assay [1] was 6.86; in assay [2] it was 7.42; in [4], 6.73. Further, the “% Inhibition of Femoral Lesion Surface Area” value in [3] is on record as 0%.
In general, inhibition refers to the relative decrease from the control value, in per cent. Turning to `CC(=O)SC(CC(=O)c1ccc(Oc2ccc(Cl)cc2)cc1)C(=O)O` (stereo not drawn) [Example 254, Benzenebutanoic acid, α-(acetylthio)-4-(4-chlorophenoxy)-γ-oxo-, reference compound], the inhibition at 5 µM worked out at 10% in assay [5] and 27% in assay [6] (at 5 μM). Also, in assay [7], the “MMP inhibitory activity (in words)” value was “very low potency”.
As for `CC(C)(C)C(=O)SCC(CC(=O)c1ccc(-c2ccc(Cl)cc2)cc1)C(=O)O` (stereo not drawn) [Example 193, [1,1'-Biphenyl]-4-butanoic acid, 4'-chloro-α-[[(2,2-dimethyl-1-oxopropyl)thio]methyl]-γ-oxo-], the pIC50 in assay [5] was 6.82; in [6], 5.61; in [8] (P218 substrate), 7.40; in [9], 6.82.
Turning to `O=C(O)CCC(=O)c1ccc(-c2ccccc2)cc1` [fenbufen, 3-biphenoylpropanoic acid, reference compound], the inhibition at 5 µM in assay [6] was found to be 2%. The pIC50 in assay [8] (P218 substrate) was 6.00. In [7], the “MMP inhibitory activity (in words)” value is given as “Only minor activity, at best”.
As to `O=C(O)[C@@H]1[C@@H](C(=O)c2ccc(-c3ccc(Cl)cc3)cc2)CC[C@H]1Sc1ccccc1` (relative stereo) [Example 294, trans-5-[4-(4-chlorophenyl)phenylcarbonyl]-trans-^2-phenylthiocyclopentanecarboxylic acid], the pIC50 was 7.24 in [1]; 7.33 in assay [5]; 7.25 in [6]; 8.40 in [8] (P218 substrate); 7.96 in assay [2]; 7.85 in assay [9]. Moreover, in [4], the pIC50 is 6.75.
On to `COC(=O)c1ccccc1SCC(CC(=O)c1ccc(-c2ccc(Cl)cc2)cc1)C(=O)O` (stereo not drawn) [Example 244, [1,1'-Biphenyl]-4-butanoic acid, 4'-chloro-α-[[[2-(methoxycarbonyl)phenyl]thio]methyl]-γ-oxo-], for which the negative-log IC50 (pIC50) is 7.10 in assay [5], 6.22 in assay [6], 8.15 in assay [8] (P218 substrate) and 7.57 in assay [9].
On to `O=C(CC(CCCc1ccccc1)C(=O)O)c1ccc(-c2ccc(Cl)cc2)cc1` (stereo not drawn) [Example 114, 4-[4-(4-chlorophenyl)phenyl]-4-oxo-2-(3-phenylpropyl)butanoic acid], for which the pIC50 in [1] is 6.61; in [5], 6.61; in assay [6] it was 6.55; in [8] (P218 substrate), 7.60; in [2] it was 7.17; in [9] it was 6.92. Besides, the pIC50 in assay [4] is 6.36.
On to `CCOC(=O)/C=C/c1ccc(-c2ccc(C(=O)CC(CCCc3ccccc3)C(=O)O)cc2)cc1` (stereo not drawn) [Example 42, [1,1'-Biphenyl]-4-butanoic acid, 4'-(3-ethoxy-3-oxo-1-propenyl)-γ-oxo-α-(3-phenylproyl)-, (E)-], for which the values for the pIC50 in assay [8] (P218 substrate) and in assay [9] were 7.68 and 7.32, respectively.
In the case of `CCOC(=O)CCc1ccc(-c2ccc(CCC(CCCc3ccccc3)C(=O)O)cc2)cc1` (stereo not drawn) [Example 44, [1,1'-Biphenyl]-4-butanoic acid, 4'-(3-ethoxy-3-oxopropyl)-α-(3-phenylpropyl)-], the figures for the pIC50 in assay [8] (P218 substrate) and in assay [9] were 5.94 and 5.71, respectively.
Regarding `O=C(C[C@@H](CCN1C(=O)c2ccccc2C1=O)C(=O)O)c1ccc(-c2ccc(Cl)cc2)cc1` [Example 269, 4-[4-(4-chlorophenyl)phenyl]-4-oxo-2R-(2-phthalimidoethyl)butanoic acid], the pIC50 was 5.99 in assay [1], 6.78 in assay [2] and 6.71 in assay [4]. In [7], the “MMP inhibitory activity (in words)” value is “less active”.
As for `O=C(CC(CCCc1ccccc1)C(=O)O)c1ccc(-c2ccccc2)cc1` (stereo not drawn) [Example 135], the pIC50 in assay [5] and in assay [9] was 5.55 in each case. Moreover, the “MMP inhibitory activity (in words)” value in [7] is reported as “low potency”.
As for `O=C(O)[C@@H]1CC[C@H]1C(=O)c1ccc(-c2ccc(Cl)cc2)cc1` (relative stereo) [Example 291, Cyclobutanecarboxylic acid, 2-[(4'-chloro[1,1'-biphenyl]-4-yl)carbonyl]-, trans-], the pIC50 in assay [5] is 6.36; in assay [6], 5.57. Moreover, the “MMP inhibitory activity (in words)” value in [7] is “much more active”.
In the case of `CC(C)CC(CC(=O)c1ccc(-c2ccccc2)cc1)C(=O)O` (stereo not drawn) [Example 13, [1,1'-Biphenyl]-4-butanoic acid, α-(2-methylpropyl)-γ-oxo-], the inhibition at 5 µM in [5] is 27%; in assay [6] (at 5 μM) it was 3%. In addition, the “MMP inhibitory activity (in words)” value in assay [7] is given as “low potency”.
Regarding `O=C(O)[C@@H]1[C@@H](CN2C(=O)c3ccccc3C2=O)CC[C@H]1C(=O)c1ccc(-c2ccc(Cl)cc2)cc1` [Example 362, (1R,2S,5R)-trans-5-[4-(4-chlorophenyl)phenylcarbonyl]-trans-2-phthalimidomethylcyclopentanecarboxylic acid], the negative logarithm of the IC50 (pIC50) in [1] was 6.37; in [2] it was 6.74; in assay [4], 7.00. Moreover, in assay [7], the “MMP inhibitory activity (in words)” value was “less active”.
For `O=C(O)[C@H]1[C@H](CN2C(=O)c3ccccc3C2=O)CC[C@@H]1C(=O)c1ccc(-c2ccc(Cl)cc2)cc1` [Example 361, (1S,2R,5S)-trans-5-[4-(4-chlorophenyl)phenylcarbonyl]-trans-2-phthalimidomethylcyclopentanecarboxylic acid], in that order: 8.52, 9.09, 9.30 and “most active”.
Consider `O=C(O)CCc1ccc(-c2ccc(CCC(CCCc3ccccc3)C(=O)O)cc2)cc1` (stereo not drawn) [Example 45, [1,1'-Biphenyl]-4-butanoic acid, 4'-(2-carboxyethyl)-α-(3-phenylpropyl)-], for which the inhibition at 5 µM was determined as 56% in [8] (at 5 μM, read-out: MMP-2 Fluorogenic % inhibition) and 43% in [9] (at 5 μM, read-out: MMP-3 Fluorogenic % inhibition).
Regarding `COc1ccc2c(CC(=O)N3CCC[C@H]3C(=O)N[C@@H](CCCCN)C(=O)N3CCC[C@H]3C(=O)N[C@@H](CC(C)C)C(=O)N[C@@H](C)C(=O)N[C@@H](CC(C)C)C(=O)N[C@@H](CNc3ccc([N+](=O)[O-])cc3[N+](=O)[O-])C(=O)N[C@@H](C)C(=O)N[C@@H](CCCNC(=N)N)C(N)=O)cc(=O)oc2c1` [Example P218] (Mca-PKPLAL[Dap](Dnp)AR-NH2), in assay [8] (P218 substrate), the “turnover number of MMP-2” value is 400,000.
